Where a name gives a salt, the structure may show the parent alone. Where a SMILES comes first, the peptide text is derived from it. [ ]: non-standard residue; d: D form. Sar = CNCC(=O)O
Experiments:
SLC15A2 mRNA = conditions: nine CML patients, 1 month after IM therapy; public database; cited from earlier work
CML-KLS+ cells [1] = assay: Metabolomic analysis of dipeptides in KLS+ cells from treated CML-affected mice; type: in vivo, mouse; conditions: IM 100 mg/kg/day for 30 days (1 month)
Experimental: (§1) To detect inhibition of dipeptide uptake in vivo, immature KLS^+ cells were isolated from tet-inducible CML-affected (Tal1-tTA^+TRE-BCR-ABL1^+) mice (n=4 mice in each of the three independent experiments), and normal healthy littermate (Tal1-tTA^+) mice (n=6 mice in each of the two independent experiments) that had received vehicle or cefadroxil (36 mgKg^−1day^−1) by oral gavage for 30 days. […] In all cases, isolated cell pellets were frozen at −80° C. immediately after obtaining. Metabolomic profiling was performed by Metabolon Inc. (Durham, N.C.) using ultrahigh-performance liquid chromatography/mass spectroscopy (UPLC/MS/MS) and gas chromatography/MS (GC/MS). Data were compiled using the Metabolon LIMS (Laboratory Information Management System). The UPLC/MS/MS portion of the platform was based on a Waters Acquity UPLC (Waters) and a Q-Exactive high-resolution/accurate mass spectrometer (Thermo Scientific) interfaced with a heated electrospray ionization (HESI-II) source and Orbitrap mass analyzer. GC/MS was performed by a Trace DSQ fast-scanning single-quadrupole mass spectrometer using electron impact ionization (Thermo-Finnigan).

Smad3 Ser208 = assay: Duolink in situ PLA, Smad3 Ser208 phosphorylation in LT-CML cancer stem cells; type: cell-based, mouse
Experimental: (§2) To examine phosphorylation of Smad2, Smad3, p38MAPK, AMPK, and S6 ribosomal protein, and Foxo3a-Smad2 and Foxo3a-Smad3 interactions, Duolink® in situ PLA assay (Olink Bioscience) was used. LT-CML stem cells, ST-CML stem cells, CD48^+, MPP, and KLS^− CML cells that were freshly isolated from CML-affected mice, and LT-normal HSCs that were freshly isolated from healthy control littermates, were immediately fixed with 4% paraformaldehyde for 30 min.
(§3) For in vitro inhibitor experiments, LT-CML stem cells were incubated in 3% O2 at 37° C. for 30 min with vehicle (control; artificial gastric fluid solution (900 ml ddH2O containing 2.0 g of NaCl, 7 ml of conc. HCl and 3.2 g of pepsin)), 5 μM Ly364947 (TGF-β type I receptor kinase Alk5 inhibitor; Merck), 5 μM SB203580 (p38MAPK inhibitor; LC Laboratories), 5 μM GlySar (dipeptide transporter inhibitor; Sigma-Aldrich), 5 μM cefadroxil (dipeptide transporter inhibitor; Sigma-Aldrich), or 100 nM rapamycin (mTORC1 inhibitor; Cell Signaling Technologies). Treated cells were fixed with 4% paraformaldehyde for 30 min, and treated with 0.25% Triton X-100 for 15 min, washed and blocked by incubation in 5% FBS in TBS for 1 hr.
(§4) The proximate binding of these antibodies was then detected using Duolink® in situ PLA system which employs a set of two secondary antibodies in which one is conjugated to a minus strand PLA probe and the other is conjugated to a plus strand PLA probe. Nuclei were stained with DNA marker DAPI (Sigma). Stained slides were mounted using Fluoromount Plus (Diagnostic Biosystems) and fluorescent images were acquired by confocal microscopy (FV10i, Olympus) and Photoshop software (Adobe). The number of fluorescent foci per single cell was quantified using Duolink®Image Tool software (Olink Bioscience).

CML-KLS+ cells [2] = assay: Metabolomic analysis of CML-KLS+ cells treated in vitro with protein degradation inhibitors; type: cell-based, mouse; conditions: 100 nM, 2 hrs in vitro, hypoxic (3% O2)
Experimental: as §1

Raptor-Ser792 = Raptor-Ser792 phosphorylation in LT-CML cancer stem cells; type: cell-based, mouse; conditions: LT-CML cancer stem cells in vitro
AMPK = assay: Duolink in situ PLA, AMPK phosphorylation in LT-CML cancer stem cells; type: cell-based, mouse; conditions: LT-CML cancer stem cells in vitro
Experimental: as §2, §3, §4

Raptor-Ser863 = assay: Duolink in situ PLA, Raptor-Ser863 phosphorylation in LT-CML cancer stem cells; type: cell-based, mouse; conditions: 30 min; GlySar or cefadroxil 5 μM; rapamycin 100 nM
Experimental: as §2
as §3, with “Treated cells were fixed with 4% paraformaldehyde for 30 min, and treated with 0.25% Triton X-100 for 15 min, washed and blocked by incubation in 5% FBS in TBS for 1 hr.” left out
(§5) The proximate binding of these antibodies was then detected using Duolink® in situ PLA system which employs a set of two secondary antibodies in which one is conjugated to a minus strand PLA probe and the other is conjugated to a plus strand PLA probe. […] The number of fluorescent foci per single cell was quantified using Duolink®Image Tool software (Olink Bioscience).

S6 ribosomal protein = assay: Duolink in situ PLA, S6 ribosomal protein phosphorylation in LT-CML cancer stem cells; type: cell-based, mouse; conditions: 30 min; GlySar or cefadroxil 5 μM; rapamycin 100 nM
Experimental: as §2
as §3, with “Treated cells were fixed with 4% paraformaldehyde for 30 min, and treated with 0.25% Triton X-100 for 15 min, washed and blocked by incubation in 5% FBS in TBS for 1 hr.” left out
as §5

Structure (SMILES)	dipeptide accumulation (CML-KLS+ cells [2])	individual amino-acid levels (CML-KLS+ cells [2])	Raptor-Ser792 phosphorylation (Raptor-Ser792)	phosphorylation of AMPK (AMPK)	further results
Cc1ccc(NC(=O)c2ccc(CN3CCN(C)CC3)cc2)cc1Nc1nccc(-c2cccnc2)n1 [IM, imatinib mesylate]	–	–	–	–	SLC15A2 mRNA levels in CML patients (SLC15A2 mRNA): decreased to a level comparable to that in healthy individuals; dipeptide levels in CML-KLS+ cells (CML-KLS+ cells [1]): tended to decrease; levels of phospho-Smad3-Ser208 (Smad3 Ser208; IM treatment of murine LT-CML stem cells in vitro): reduced
CC(C)C[C@H](NC(=O)[C@H](Cc1ccccc1)NC(=O)c1cnccn1)B(O)O [Bortezomib]	increased significantly	decreased	–	–	–
CO/C1=C\C(C)=C\[C@@H](C)[C@@H](O)[C@@H](C)C/C(C)=C/C=C/[C@H](OC)[C@@H]([C@@H](C)[C@@H](O)[C@H](C)[C@@]2(O)C[C@@H](O)[C@H](C)[C@@H](C(C)C)O2)OC1=O [Bafilomycin A1]	increased significantly	decreased	–	–	–
CN(C)C(=N)N=C(N)N [Metformin]	–	–	increases	increases	–
CN(CC(=O)O)C(=O)CN [GlySar, glycylsarcosine] (H-Gly-[Sar]-OH)	–	–	did not promote	increased	phosphorylation of Raptor-Ser863 (Raptor-Ser863): decreased phosphorylation; Smad3 Ser208 phosphorylation (Smad3 Ser208; 30 min, GlySar or cefadroxil 5 μM, rapamycin 100 nM): blocked; phosphorylation of S6 (S6 ribosomal protein): decreased phosphorylation

Reference: patent publication US10322136B2, “Composition for inhibiting growth or proliferation of chronic myelogenous leukemia cancer stem cells, and screening method therefor” (HIROSHIMA UNIVERSITY, priority 2015, dated 2019)
